Legend:
BRAF V600E = target: T1, BRAF V600E (Homo sapiens, UniProt P15056, V600E); assay: Cellular assay of target protein degradation, T-Rex 293 cells stably transfected with HA-BRAF_V600E (HA immunofluorescence, high content imaging); type: cell-based; conditions: T-Rex 293 HA-BRAF V600E; for DC50: half maximal degradation, read-out: BRaf V600E DC50; for Dmax: maximum degradation observed
T1 construct: expressed in transfected cells
How it was run: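 HA immunofluorescence on fixed cells, imaged by high-content reader, measured loss of HA-BRAF V600E in stably transfected T-Rex 293 cells induced with 1 ng/mL doxycycline. Compounds were applied for 24 h at 37 °C (final 0.1 nM–1 μM, 0.1% DMSO); DC50 and Dmax (% of control) were reported.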

BRAF G466V = target: T2, BRAF G466V (Homo sapiens, UniProt P15056, G466V); assay: Cellular assay of target protein degradation, T-Rex 293 cells stably transfected with HA-BRAF G466V (HA immunofluorescence, high content imaging); type: cell-based; conditions: T-Rex 293 HA-BRAF G466V; for DC50: half maximal degradation, read-out: BRaf G466V DC50; for Dmax: maximum degradation observed
T2 construct: expressed in transfected cells
How it was run: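 HA-BRAF G466V levels were read by HA immunofluorescence and high-content imaging after 24 h compound exposure (final 30 nM–3 pM, 0.1% DMSO, 37 °C). Expression was induced with 0.75 ng/mL doxycycline. Outputs: half-maximal degradation concentration (DC50) and maximal degradation (Dmax) relative to control.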

T2 sequence (P15056 whole entry G466V): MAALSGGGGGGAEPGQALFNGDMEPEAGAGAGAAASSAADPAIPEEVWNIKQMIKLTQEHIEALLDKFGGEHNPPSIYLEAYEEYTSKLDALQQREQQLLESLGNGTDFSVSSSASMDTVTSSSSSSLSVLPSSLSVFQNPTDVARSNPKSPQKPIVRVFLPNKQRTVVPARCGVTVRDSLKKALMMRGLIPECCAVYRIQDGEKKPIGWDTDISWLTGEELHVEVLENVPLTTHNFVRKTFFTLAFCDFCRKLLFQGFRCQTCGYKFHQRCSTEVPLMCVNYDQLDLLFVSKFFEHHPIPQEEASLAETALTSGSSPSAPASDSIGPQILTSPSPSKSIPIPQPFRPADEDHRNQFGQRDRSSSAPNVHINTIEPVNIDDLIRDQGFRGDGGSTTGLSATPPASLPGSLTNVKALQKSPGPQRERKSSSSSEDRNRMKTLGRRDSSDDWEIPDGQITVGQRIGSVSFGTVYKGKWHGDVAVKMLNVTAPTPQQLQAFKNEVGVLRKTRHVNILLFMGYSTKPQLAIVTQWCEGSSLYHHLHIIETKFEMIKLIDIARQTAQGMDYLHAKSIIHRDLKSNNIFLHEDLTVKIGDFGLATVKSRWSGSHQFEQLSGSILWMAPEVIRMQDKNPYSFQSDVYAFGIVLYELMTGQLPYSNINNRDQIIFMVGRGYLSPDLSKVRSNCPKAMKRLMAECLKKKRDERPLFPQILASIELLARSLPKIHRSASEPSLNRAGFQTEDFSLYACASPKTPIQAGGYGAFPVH
T1 sequence (P15056 whole entry V600E): as the sequence (P15056 whole entry G466V) above, with V466G, V600E counted along it

Structure (SMILES)	DC50 (BRAF V600E)	Dmax (BRAF V600E)	DC50 (BRAF G466V)	Dmax (BRAF G466V)
O=C1CCC(N2Cc3cc(OCCCCN4CCN(c5ncc(-c6cnc7[nH]cc(C(=O)c8c(F)ccc(NS(=O)(=O)N9CC[C@@H](F)C9)c8F)c7c6)cn5)CC4)ccc3C2=O)C(=O)N1 (stereo partly drawn) [Compound 121, (3R)-N-[3-(5-{2-[4-(4-{[2-(2,6-dioxopiperidin-3-yl)-1-oxo-2,3-dihydro-1H-isoindol-5-yl]oxy}butyl)piperazin-1-yl]pyrimidin-5-yl}-1H-pyrrolo[2,3-b]pyridine-3-carbonyl)-2,4-difluorophenyl]-3-fluoropyrrolidine-1-sulfonamide]	5 to 50 nM	35 to 70%	1 to 10 nM	> 70%
O=C1CCC(c2ccc(C3CCN(CCC4CCN(c5ccc(-c6cnc7[nH]cc(C(=O)c8c(F)ccc(NS(=O)(=O)N9CC[C@@H](F)C9)c8F)c7c6)cc5)CC4)CC3)cc2F)C(=O)N1 (stereo partly drawn) [Compound 178, (3R)-N-[3-(5-{4-[4-(2-{4-[4-(2,6-dioxopiperidin-3-yl)-3-fluorophenyl]piperidin-1-yl}ethyl)piperidin-1-yl]phenyl}-1H-pyrrolo[2,3-b]pyridine-3-carbonyl)-2,4-difluorophenyl]-3-fluoropyrrolidine-1-sulfonamide]	5 to 50 nM	< 35%	1 to 10 nM	> 70%
COc1cc(N2CC3(C2)CN(CC2CCN(c4ccc(-c5cnc6[nH]cc(C(=O)c7c(F)ccc(NS(=O)(=O)N8CC[C@@H](F)C8)c7F)c6c5)cc4)CC2)[C@@H]3C)cc2c1C(=O)N(C1CCC(=O)NC1=O)C2 (stereo partly drawn) [Compound 20, (3R)-N-(3-{5-[4-(4-{[(1R)-6-[2-(2,6-dioxopiperidin-3-yl)-7-methoxy-1-oxo-2,3-dihydro-1H-isoindol-5-yl]-1-methyl-2,6-diazaspiro[3.3]heptan-2-yl]methyl}piperidin-1-yl)phenyl]-1H-pyrrolo[2,3-b]pyridine-3-carbonyl}-2,4-difluorophenyl)-3-fluoropyrrolidine-1-sulfonamide]	5 to 50 nM	35 to 70%	< 1 nM	35 to 70%
O=C1CC[C@H](NC(=O)c2ccc(C3CCN(CC4CCN(c5ccc(-c6cnc7[nH]cc(C(=O)c8c(F)ccc(NS(=O)(=O)N9CC[C@@H](F)C9)c8F)c7c6)cc5)CC4)CC3)cc2F)C(=O)N1 [Compound 33, 4-(1-{[1-(4-{3-[2,6-difluoro-3-({[(3R)-3-fluoropyrrolidin-1-yl]sulfonyl}amino)benzoyl]-1H-pyrrolo[2,3-b]pyridin-5-yl}phenyl)piperidin-4-yl]methyl}piperidin-4-yl)-N-[(3S)-2,6-dioxopiperidin-3-yl]-2-fluorobenzamide]	5 to 50 nM	> 70%	1 to 10 nM	35 to 70%
O=C1CCC(NC(=O)c2ccc(OCCCCN3CCN(c4ccc(-c5cnc6[nH]cc(C(=O)c7c(F)ccc(NS(=O)(=O)N8CC[C@@H](F)C8)c7F)c6c5)cc4)CC3)cc2F)C(=O)N1 (stereo partly drawn) [Compound 350, 4-{4-[4-(4-{3-[2,6-difluoro-3-({[(3R)-3-fluoropyrrolidin-1-yl]sulfonyl}amino)benzoyl]-1H-pyrrolo[2,3-b]pyridin-5-yl}phenyl)piperazin-1-yl]butoxy}-N-(2,6-dioxopiperidin-3-yl)-2-fluorobenzamide]	50 to 500 nM	< 35%	> 30 nM	
O=C1CCN(c2ccc(N3CCN(CCc4ccc(-c5cnc6[nH]cc(C(=O)c7c(F)ccc(NS(=O)(=O)N8CC[C@@H](F)C8)c7F)c6c5)cc4)CC3)cc2F)C(=O)N1 [Compound 136, (3R)-N-(3-{5-[4-(2-{4-[4-(2,4-dioxo-1,3-diazinan-1-yl)-3-fluorophenyl]piperazin-1-yl}ethyl)phenyl]-1H-pyrrolo[2,3-b]pyridine-3-carbonyl}-2,4-difluorophenyl)-3-fluoropyrrolidine-1-sulfonamide]	50 to 500 nM	< 35%	> 30 nM	

Results, then the compound that gave them:

DC50 (BRAF V600E)	Dmax (BRAF V600E)	DC50 (BRAF G466V)	Dmax (BRAF G466V)	Structure (SMILES)
50 to 500 nM	< 35%	1 to 10 nM	35 to 70%	O=C1CC[C@@H](NC(=O)c2ccc(N3CCC(CN4CCN(c5ccc(-c6cnc7[nH]cc(C(=O)c8c(F)ccc(NS(=O)(=O)N9CC[C@@H](F)C9)c8F)c7c6)cc5)CC4)CC3)cc2F)C(=O)N1 [Compound 340]
< 5 nM	35 to 70%	< 1 nM	35 to 70%	CCc1c(NS(=O)(=O)N2CC[C@@H](F)C2)ccc(F)c1C(=O)c1c[nH]c2ncc(-c3ccc(N4CCC(CN5CCC(c6ccc7c(c6)CN(C6CCC(=O)NC6=O)C7=O)CC5)CC4)cc3)cc12 (stereo partly drawn) [Compound 276, (3R)-N-[3-(5-{4-[4-({4-[2-(2,6-dioxopiperidin-3-yl)-1-oxo-2,3-dihydro-1H-isoindol-5-yl]piperidin-1-yl}methyl)piperidin-1-yl]phenyl}-1H-pyrrolo[2,3-b]pyridine-3-carbonyl)-2-ethyl-4-fluorophenyl]-3-fluoropyrrolidine-1-sulfonamide]
5 to 50 nM	35 to 70%	1 to 10 nM	35 to 70%	O=C1CC[C@H](N2Cc3cc(C4CCN(CC5CCN(c6ccc(-c7cnc8[nH]cc(C(=O)c9c(Cl)ccc(NS(=O)(=O)N%10CC[C@@H](F)C%10)c9Cl)c8c7)cc6)CC5)CC4)ccc3C2=O)C(=O)N1 [Compound 267, (3R)-N-{2,4-dichloro-3-[5-(4-{4-[(4-{2-[(3S)-2,6-dioxopiperidin-3-yl]-1-oxo-2,3-dihydro-1H-isoindol-5-yl}piperidin-1-yl)methyl]piperidin-1-yl}phenyl)-1H-pyrrolo [2,3-b]pyridine-3-carbonyl]phenyl}-3-fluoropyrrolidine-1-sulfonamide]
5 to 50 nM	35 to 70%	1 to 10 nM	> 70%	COc1ccc(NS(=O)(=O)N2CC[C@@H](F)C2)c(F)c1C(=O)c1c[nH]c2ncc(-c3ccc(N4CCC(CN5CCC(c6ccc7c(c6)CN([C@H]6CCC(=O)NC6=O)C7=O)CC5)CC4)cc3)cc12 [Compound 212, (3R)—N-{3-[5-(4-{4-[(4-{2-[(3S)-2,6-dioxopiperidin-3-yl]-1-oxo-2,3-dihydro-1H-isoindol-5-yl}piperidin-1-yl)methyl]piperidin-1-yl}phenyl)-1H-pyrrolo[2,3-b]pyridine-3-carbonyl]-2-fluoro-4-methoxyphenyl}-3-fluoropyrrolidine-1-sulfonamide]
5 to 50 nM	35 to 70%	1 to 10 nM	> 70%	O=C1CC[C@H](NC(=O)c2ccc(N3CCC(CN4CCN(c5ccc(-c6cnc7[nH]cc(C(=O)c8c(F)ccc(NS(=O)(=O)N9CC[C@@H](F)C9)c8F)c7c6)cc5)CC4)CC3)cc2F)C(=O)N1 [Compound 339, 4-(4-{[4-(4-{3-[2,6-difluoro-3-({[(3R)-3-fluoropyrrolidin-1-yl]sulfonyl}amino)benzoyl]-1H-pyrrolo[2,3-b]pyridin-5-yl}phenyl)piperazin-1-yl]methyl}piperidin-1-yl)-N-[(3S)-2,6-dioxopiperidin-3-yl]-2-fluoorobenzamide]
5 to 50 nM	35 to 70%	1 to 10 nM	> 70%	O=C1CC[C@H](N2Cc3cc(C4CCN(CC5CCN(c6ccc(-c7cnc8[nH]cc(C(=O)c9c(F)ccc(NS(=O)(=O)N%10CCC(F)(F)C%10)c9F)c8c7)cc6)CC5)CC4)ccc3C2=O)C(=O)N1 [Compound 232, N-{3-[5-(4-{4-[(4-{2-[(3S)-2,6-dioxopiperidin-3-yl]-1-oxo-2,3-dihydro-1H-isoindol-5-yl}piperidin-1-yl)methyl]piperidin-1-yl}phenyl)-1H-pyrrolo[2,3-b]pyridine-3-carbonyl]-2,4-difluorophenyl}-3,3-difluoropyrrolidine-1-sulfonamide]
